Experimental data reported in patent US20090036492A1, “Novel Cercosporamide Derivative” (priority 2005, published 2009).

Tested on: male KK mice
Test: Blood glucose lowering effect in diabetic KK mice
Type: in vivo
Conditions: 15 to 20 weeks old, feed containing 0.03% of the compound, three days, blood glucose on the 3rd day vs control group
Description: Six-week-old male KK mice were purchased from CLEA Japan, Inc. and then were fed until 15 to 20 weeks old and affected with diabetes. The mice were individually fed during the adaptation period and the test period, and water and feed (FR2, Funabashi Farm) were freely ingested.
At the start of the experiment, after body weight measurement, blood was collected from the tail vein of the mice into a heparin-coated glass tube and centrifuged, and then plasma was separated. The glucose level in the plasma was measured by Glucoloader GXT (A&T Corp.), and individuals having a blood glucose level of about 350 mg/dl or more were selected. Groups each having 3 to 4 mice were used for the experiment, and the mice were grouped to make the average body weight and the average blood glucose level similar. Each compound was administered to a compound administration group by feeding a mixture with feed containing 0.03% of the compound. A separate group in which the mice were fed only with feed was a control group.
The experiment period (drug administration period) was three days. The grouping day was the 0th day. On the 3rd day, body weight was measured and blood was collected from the tail vein to measure the blood glucose level.
The blood glucose lowering efficacy was determined by the following formula.
Blood glucose lowering efficacy=[(Control group blood glucose level−Compound administration group blood glucose level)/Control group blood glucose level]×100

**Q.** With `COc1cc(O)c2c(c1C(=O)NCc1ccc(OCc3ccccc3F)c3ccccc13)OC1=CC(O)=C(C(C)=O)C(=O)[C@]12C` [Example 144, (9aS)-8-Acetyl-N-({4-[(2-fluorobenzyl)oxy]-1-naphthyl}methyl)-1,7-dihydroxy-3-methoxy-9a-methyl-9-oxo-9,9a-dihydrodibenzo[b,d]furan-4-carboxamide] as the compound, how does the “Blood glucose lowering efficacy (%)” value read?
**A.** Its value is 41%.

Same assay, conditions: Mus musculus, po, 72 h, 15 to 20 weeks old, feed containing 0.03% of the compound, three days, blood glucose on the 3rd day vs control group, read-out: Blood glucose lowering efficacy (%)

**Q.** `COc1cc(O)c2c(c1C(=O)NCc1c(C)ccc3ccccc13)OC1=CC(O)=C(C(C)=O)C(=O)[C@]12C` [Example 27, (9aS)-8-Acetyl-1,7-dihydroxy-3-methoxy-9a-methyl-N-[(2-methyl-1-naphthyl)methyl]-9-oxo-9,9a-dihydrodibenzo[b,d]furan-4-carboxamide] was tested. Which inhibition in vivo at 0.03 % in feed did it give?
**A.** The inhibition in vivo at 0.03 % in feed was 42%.

**Q.** How did the inhibition in vivo at 0.03 % in feed turn out when `COc1cc(O)c2c(c1C(=O)NCc1c(C)c(C)cc(C)c1C)OC1=CC(O)=C(C(C)=O)C(=O)[C@]12C` [Example 36, (9aS)-8-Acetyl-1,7-dihydroxy-3-methoxy-9a-methyl-9-oxo-N-(2,3,5,6-tetramethylbenzyl)-9,9a-dihydrodibenzo[b,d]furan-4-carboxamide] was run?
**A.** The inhibition in vivo at 0.03 % in feed was 36%.

**Q.** How did the inhibition in vivo at 0.03 % in feed turn out when `COc1cc(O)c2c(c1C(=O)NCc1c(C)c(C)cc3ccccc13)OC1=CC(O)=C(C(C)=O)C(=O)[C@]12C` [Example 54, (9aS)-8-Acetyl-1,7-dihydroxy-3-methoxy-9a-methyl-N-[(2,3-dimethyl-1-naphthyl)methyl]-9-oxo-9,9a-dihydrodibenzo[b,d]furan-4-carboxamide] was run?
**A.** The inhibition in vivo at 0.03 % in feed was 34%.

**Q.** `CCc1ccc2ccccc2c1CNC(=O)c1c(OC)cc(O)c2c1OC1=CC(O)=C(C(C)=O)C(=O)[C@]12C` [Example 56, (9aS)-8-Acetyl-N-[(2-ethyl-1-naphthyl)methyl]-1,7-dihydroxy-3-methoxy-9a-methyl-9-oxo-9,9a-dihydrodibenzo[b,d]furan-4-carboxamide] was tested. Which inhibition in vivo at 0.03 % in feed did it give?
**A.** Its inhibition in vivo at 0.03 % in feed is 24%.

**Q.** `COc1cc(O)c2c(c1C(=O)NCc1c(C)c(C)c(C)c3ccccc13)OC1=CC(O)=C(C(C)=O)C(=O)[C@]12C` [Example 69, (9aS)-8-Acetyl-1,7-dihydroxy-3-methoxy-9a-methyl-N-[(2,3,4-trimethyl-1-naphthyl)methyl]-9-oxo-9,9a-dihydrodibenzo[b,d]furan-4-carboxamide] was tested. Which inhibition in vivo at 0.03 % in feed did it give?
**A.** The inhibition in vivo at 0.03 % in feed was 47%.

**Q.** For `CC(=O)C1=C(O)C=C2Oc3c(C(=O)NCc4c(C)ccc5ccccc45)c(OC(F)F)cc(O)c3[C@]2(C)C1=O` [Example 86, (9aS)-8-Acetyl-3-(difluoromethoxy)-1,7-dihydroxy-9a-methyl-N-[(2-methyl-1-naphthyl)methyl]-9-oxo-9,9a-dihydrodibenzo[b,d]furan-4-carboxamide], which inhibition in vivo at 0.03 % in feed is on record?
**A.** Its inhibition in vivo at 0.03 % in feed is 31%.

**Q.** With `CO/N=C(\C)C1=C(O)C=C2Oc3c(C(=O)NCc4c(C)ccc5ccccc45)c(OC)cc(O)c3[C@]2(C)C1=O` [Example 87, (9aS)-1,7-Dihydroxy-3-methoxy-8-[(1E)-N-methoxyethaneimidoyl]-9a-methyl-N-[(2-methyl-1-naphthyl)methyl]-9-oxo-9,9a-dihydrodibenzo[b,d]furan-4-carboxamide] as the compound, how does the inhibition in vivo at 0.03 % in feed read?
**A.** The inhibition in vivo at 0.03 % in feed was 45%.

**Q.** `CCCc1c(C)cc(C)c(C)c1CNC(=O)c1c(OC)cc(O)c2c1OC1=CC(O)=C(C(C)=O)C(=O)[C@]12C` [Example 94, (9aS)-8-Acetyl-1,7-dihydroxy-3-methoxy-9a-methyl-9-oxo-N-(2,3,5-trimethyl-6-propylbenzyl)-9,9a-dihydrodibenzo[b,d]furan-4-carboxamide] was tested. Which inhibition in vivo at 0.03 % in feed did it give?
**A.** The inhibition in vivo at 0.03 % in feed was 44%.

**Q.** For `CC#CCOc1cc(C)c(CNC(=O)c2c(OC)cc(O)c3c2OC2=CC(O)=C(C(C)=O)C(=O)[C@]23C)c(C)c1` [Example 97, (9aS)-8-Acetyl-N-[4-(2-butynyloxy)-2,6-dimethylbenzyl]-1,7-dihydroxy-3-methoxy-9a-methyl-9-oxo-9,9a-dihydrodibenzo[b,d]furan-4-carboxamide], which inhibition in vivo at 0.03 % in feed is on record?
**A.** The inhibition in vivo at 0.03 % in feed was 53%.

**Q.** For `CCC#CCOc1cc(C)c(CNC(=O)c2c(OC)cc(O)c3c2OC2=CC(O)=C(C(C)=O)C(=O)[C@]23C)c(C)c1` [Example 101, (9aS)-8-Acetyl-N-[2,6-dimethyl-4-(2-pentynyloxy)benzyl]-1,7-dihydroxy-3-methoxy-9a-methyl-9-oxo-9,9a-dihydrodibenzo[b,d]furan-4-carboxamide], which inhibition in vivo at 0.03 % in feed is on record?
**A.** Its inhibition in vivo at 0.03 % in feed is 47%.

**Q.** How did the inhibition in vivo at 0.03 % in feed turn out when `CC#CCOc1cc(C)c(CNC(=O)c2c(OC)cc(O)c3c2OC2=CC(O)=C(C(C)=O)C(=O)[C@]23C)c(C)c1C` [Example 102, (9aS)-8-Acetyl-N-[4-(2-butynyloxy)-2,3,6-trimethylbenzyl]-1,7-dihydroxy-3-methoxy-9a-methyl-9-oxo-9,9a-dihydrodibenzo[b,d]furan-4-carboxamide] was run?
**A.** The inhibition in vivo at 0.03 % in feed was 63%.

**Q.** For `CCC#CCOc1cc(C)c(CNC(=O)c2c(OC)cc(O)c3c2OC2=CC(O)=C(C(C)=O)C(=O)[C@]23C)c(C)c1C` [Example 103, (9aS)-8-Acetyl-1,7-dihydroxy-3-methoxy-9a-methyl-9-oxo-N-[2,3,6-trimethyl-4-(2-pentynyloxy)benzyl]-9,9a-dihydrodibenzo[b,d]furan-4-carboxamide], which inhibition in vivo at 0.03 % in feed is on record?
**A.** Its inhibition in vivo at 0.03 % in feed is 62%.

**Q.** `COc1cc(O)c2c(c1C(=O)NCc1ccc(OCc3ccccc3)c3ccccc13)OC1=CC(O)=C(C(C)=O)C(=O)[C@]12C` [Example 104, (9aS)-8-Acetyl-N-{[4-(benzyloxy)-1-naphthyl]methyl}-1,7-dihydroxy-3-methoxy-9a-methyl-9-oxo-9,9a-dihydrodibenzo[b,d]furan-4-carboxamide] was tested. Which inhibition in vivo at 0.03 % in feed did it give?
**A.** The inhibition in vivo at 0.03 % in feed was 53%.

**Q.** How did the inhibition in vivo at 0.03 % in feed turn out when `COc1cc(O)c2c(c1C(=O)NCc1ccc(OCc3ccc(F)cc3)c3ccccc13)OC1=CC(O)=C(C(C)=O)C(=O)[C@]12C` [Example 106, (9aS)-8-Acetyl-N-({4-[(4-fluorobenzyl)oxy]-1-naphthyl}methyl)-1,7-dihydroxy-3-methoxy-9a-methyl-9-oxo-9,9a-dihydrodibenzo[b,d]furan-4-carboxamide] was run?
**A.** The inhibition in vivo at 0.03 % in feed was 51%.

**Q.** For `COc1cc(O)c2c(c1C(=O)NCc1c(C)cc(NS(=O)(=O)c3ccc(Cl)cc3Cl)cc1C)OC1=CC(O)=C(C(C)=O)C(=O)[C@]12C` [Example 111, (9aS)-8-Acetyl-N-(4-{[(2,4-dichlorophenyl)sulfonyl]amino}-2,6-dimethylbenzyl)-1,7-dihydroxy-3-methoxy-9a-methyl-9-oxo-9,9a-dihydrodibenzo[b,d]furan-4-carboxamide], which inhibition in vivo at 0.03 % in feed is on record?
**A.** The inhibition in vivo at 0.03 % in feed was 31%.

**Q.** `CCc1c(C)cc2ccccc2c1CNC(=O)c1c(OC)cc(O)c2c1OC1=CC(O)=C(C(C)=O)C(=O)[C@]12C` [Example 116, (9aS)-8-Acetyl-N-[(2-ethyl-3-methyl-1-naphthyl)methyl]-1,7-dihydroxy-3-methoxy-9a-methyl-9-oxo-9,9a-dihydrodibenzo[b,d]furan-4-carboxamide] was tested. Which inhibition in vivo at 0.03 % in feed did it give?
**A.** Its inhibition in vivo at 0.03 % in feed is 32%.

**Q.** `COc1cc(O)c2c(c1C(=O)NCc1c(C)cc(NS(=O)(=O)c3cc(C)c(Cl)cc3Cl)cc1C)OC1=CC(O)=C(C(C)=O)C(=O)[C@]12C` [Example 140, (9aS)-8-Acetyl-N-(4-{[(2,4-dichloro-5-methylphenyl)sulfonyl]amino}-2,6-dimethylbenzyl)-1,7-dihydroxy-3-methoxy-9a-methyl-9-oxo-9,9a-dihydrodibenzo[b,d]furan-4-carboxamide] was tested. Which inhibition in vivo at 0.03 % in feed did it give?
**A.** The inhibition in vivo at 0.03 % in feed was 18%.

**Q.** `COc1cc(O)c2c(c1C(=O)NCc1ccc(OCc3ccc(F)cc3F)c3ccccc13)OC1=CC(O)=C(C(C)=O)C(=O)[C@]12C` [Example 146, (9aS)-8-Acetyl-N-({4-[(2,4-difluorobenzyl)oxy]-1-naphthyl}methyl)-1,7-dihydroxy-3-methoxy-9a-methyl-9-oxo-9,9a-dihydrodibenzo[b,d]furan-4-carboxamide] was tested. Which inhibition in vivo at 0.03 % in feed did it give?
**A.** Its inhibition in vivo at 0.03 % in feed is 49%.
